Measurements published in patent US20190336537A1, “GENERATING ATRIAL AND VENTRICULAR CARDIOMYOCYTE LINEAGES FROM HUMAN PLURIPOTENT STEM CELLS” (UNIVERSITY HEALTH NETWORK, priority 2016, published 2019).

Test system: HES3 NKX2-5:GFP hESC-derived mesoderm
Experiment: Specification of mesoderm populations to an atrial fate by ROH or RA (day 20 flow cytometry and qRT-PCR)
Type: cell-based, human
Protocol: To determine if the ALDH^+ cells can synthesize RA, the ALDH^+PDGFRalpha^+ and ALDH^− PDGFRalpha^+ fractions were isolated from the day 4 3B/2A-induced population, and the cells were cultured as aggregates in retinol (ROH), RA, or DMSO (control) for 24 hr (FIGS. 3A and 3B). ALDH1A2 expression segregated to the ALDH^+ fraction, confirming the validity of aldefluor-based sorting strategy for isolating RALDH2-expressing cells (FIG. 3C).
For cardiac differentiation, we used a modified version of our embryoid body (EB)-based protocol (Kattman et al., 2011). hPSC populations at 80%-90% confluence were dissociated into single cells (TrypLE, ThermoFisher) and re-aggregated to form EBs in StemPro-34 media (ThermoFisher) containing penicillin/streptomycin (1%, ThermoFisher), L-glutamine (2 mM, ThermoFisher), trans-ferrin (150 μg/ml, ROCHE), ascorbic acid (50 μg/ml, Sigma), and monothioglycerol (50 μg/ml, Sigma), ROCK inhibitor Y-27632 (10 μM, TOCRIS) and rhBMP4 (1 ng/ml, R&D) for 18 h on an orbital shaker. At day 1, the EBs were transferred to mesoderm induction media consisting of StemPro-34 with above supplements (-ROCK inhibitor Y-27632) and rhBMP4, rhActivinA (R&D) and rhbFGF (5 ng/ml, R&D) at the indicated concentrations. At day 3, the EBs were harvested, washed with IMDM and transferred to cardiac mesoderm specification media consisting of StemPro-34, the Wnt inhibitor IWP2 (1 μM, TOCRIS) and rhVEGF (10 ng/mL, R&D). At day 5, the EBs were transferred to Stem Pro-34 with rhVEGF (5 ng/ml) for another 7 days and then to Stem Pro-34 media without additional cytokines for further 8 days. At day 20, HES3-NKX2-5gfp/w-derived cardiomyocytes were analyzed and isolated based on the expression of NKX2-5:GFP and SIRPa and a lack of CD90. Cardiomyocytes generated from non-transgenic hPSC lines were analyzed and isolated as SIRPa+CD90− populations. Media was changed every 3 days. Cultures were incubated in a low oxygen environment (5% CO2, 5% O2, 90% N2) for first 12 days and a normoxic environment (5% CO2) for the following 8 days in total of 20 days. The EBs were cultured in ultra-low attachment 6-well dishes (Corning) throughout the differentiation for maintaining suspension cultures.
Following optimization, either ATRA (0.5 μM, Sigma) or retinol (2 μM, Sigma) was included in the cardiac mesoderm specification media from days 3-5 for the generation of atrial cardiomyocytes.
Day 2-6 EBs were dissociated with TrypLE for 2-4 min at room temperature (RT). Day 20 EBs were dissociated by incubation in Collagenase type 2 (0.5 mg/ml, Worthington) in HANKs buffer overnight at RT followed by TrypLE treatment as described above. The following antibodies were used for staining: anti-PDGFRa-PE (R&D Systems, 3:50), anti-CD235a-APC (BD PharMingen, 1:100), antiSIRPa-PeCy7 (Biolegend, 1:1000), anti-CD90-APC (BD PharMingen, 1:1000), anticardiac isoform of CTNT (ThermoFisher Scientific, 1:2000), or anti-myosin light chain 2 (Abcam, 1:1000). For unconjugated primary antibodies, the following secondary antibodies were used for detection: goat anti-mouse IgG-APC (BD Pharmigen, 1:250), or donkey anti-rabbit IgG-PE (Jackson ImmunoResearch, 1:250). Detailed antibody information is described in Table 2.
The Aldefluor™ assay (STEMCELL Technologies) was performed according to the instruction provided by the manufacturer. Briefly, day 2-6 EBs were dissociated as described above. […] Stained cells were analyzed as described above. […]

## CC1=C(/C=C/C(C)=C/C=C/C(C)=C/C(=O)O)C(C)(C)CCC1 [RA, all trans retinoic acid]
5B/12A-induced EBs, treated days 3-5
  atrial specification (MLC2V+, IRX4, KCNJ3, NR2F2): able to induce an atrial-like cardiomyocyte phenotype
ALDH+PDGFRalpha+ fraction, day 4, 3B/2A induced, 24 hr treatment
  atrial specification (MLC2V+ frequency, IRX4, KCNJ3): similar
